Measurements as given in patent US12274704B2, “9,11-secosteroids and the use of 9,11-secosteroids in preparing pharmaceutical compositions for inhibiting inflammation” (Chang Gung University of Science and Technology, priority 2020, dated 2025).

Key:
[1] = system: fMLF/CB-induced human neutrophils; test: Superoxide anion generation in fMLF/CB-induced human neutrophils; format: cell-based; conditions: for IC50: mean ± S.E.M. (n = 3 or 4); for inhibition at 10 µM / Superoxide Anion Inhibition (%): at 10 μM concentration, mean ± S.E.M.
Procedure: (§1) Blood samples were collected from healthy adult donors (20-32 years) via venipuncture in accordance with the standard protocol approved by the local institutional review board. Human neutrophils were isolated from peripheral blood through dextran sedimentation, centrifugation in a Ficoll-Hypaque gradient, and hypotonic lysis of red blood cells.
(§2) In accordance with the above-mentioned protocol, assays were performed to measure superoxide anion generation based on the superoxide dismutase-inhibitable reduction of ferricytochrome c; methoxy-succinyl-alanyl-alanyl-prolyl-valine-p-nitroanilide (MeO-Suc-Ala-Ala-Pro-Val-p-nitroanilide) was used as the enzyme substrate for the detection of elastase release.

[2] = system: fMLF/CB-induced human neutrophils; test: Elastase release in fMLF/CB-induced human neutrophils; format: cell-based; conditions: for IC50: mean ± S.E.M. (n = 3 or 4); for inhibition at 10 µM / Elastase Release Inhibition (%): at 10 μM concentration, mean ± S.E.M.
Procedure: as §1, §2

FPR1 receptor = target: T1, FPR1 receptor (Homo sapiens, UniProt P21462); test: FPR1 receptor binding assay (fNLFNYK, flow cytometry) in human neutrophils; conditions: 10 μM test substance, fNLFNYK 2 nM
T1 construct: endogenous in cells; host or cells: human neutrophils
T1 sequence (P21462 1-350): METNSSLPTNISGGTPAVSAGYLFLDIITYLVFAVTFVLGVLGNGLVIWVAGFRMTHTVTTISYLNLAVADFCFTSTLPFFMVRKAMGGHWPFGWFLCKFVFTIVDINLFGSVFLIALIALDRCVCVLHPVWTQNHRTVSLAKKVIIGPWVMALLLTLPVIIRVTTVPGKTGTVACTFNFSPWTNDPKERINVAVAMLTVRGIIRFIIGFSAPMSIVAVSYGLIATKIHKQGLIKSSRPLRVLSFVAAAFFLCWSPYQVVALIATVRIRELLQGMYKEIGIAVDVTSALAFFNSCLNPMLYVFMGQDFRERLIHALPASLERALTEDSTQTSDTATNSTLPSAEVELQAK
Procedure: Receptor binding assays of the present invention were performed via FACScan™ flow Cytometer analysis of N-formyl-Nle-Leu-Phe-Nle-Tyr-Lys-fluorescein (fNLFNYK; a fluorescent analog of N-formylmethionyl-leucyl-phenylalanine (fMLF)) binding to receptor of human neutrophils; The neutrophils were preincubated with test compounds at 4° C. for 5 min and then labelled with fNLFNYK for 30 min, then the cells were immediately analyzed via flow cytometry.
The receptor-binding assay is based on the binding between N-formyl-Nle-Leu-Phe-Nle-Tyr-Lys-fluorescein (fNLFNYK) and the […] receptor of human neutrophil.

Molecule	IC50 ([1]; Homo sapiens, Neutrophil) [µM]	IC50 [1] [µM]	IC50 ([2]; Homo sapiens, Neutrophil) [µM]	IC50 [2] [µM]	binding to FPR1 receptor (inhibition of fNLFNYK binding) (FPR1 receptor)	inhibition at 10 µM ([1]; Neutrophil) [%]	inhibition at 10 µM ([2]; Neutrophil) [%]	Superoxide Anion Inhibition (%) [1] [%]	Elastase Release Inhibition (%) [2] [%]
C=C(CC[C@@H](C)C1CCC([C@H]2CC=C3C[C@@H](O)CC[C@]3(C)C2=O)[C@]1(C)CCO)C(C)C (stereo partly drawn) [Compound 3, 8αH-3β,11-dihydroxy-24-methylene-9,11-secocholest-5-en-9-one]	1.63 to 8.07	1.97 ± 0.12	1.63 to 8.07	3.12 ± 0.07		90.5 ± 2.44	112 ± 5.01		
C=C(CC[C@@H](C)C1CCC([C@@H]2CC=C3C[C@@H](O)CC[C@]3(C)C2=O)[C@]1(C)CCO)C(C)C (stereo partly drawn) [Compound 4, 8βH-3β,11-dihydroxy-24-methylene-9,11-secocholest-5-en-9-one]	1.63 to 8.07	2.96 ± 0.91	1.63 to 8.07	1.63 ± 0.15		91.1 ± 4.51	93.7 ± 1.23		
CC(C)[C@@H](C)CC[C@@H](C)[C@H]1CC[C@@H]([C@@H]2CC=C3C[C@@H](O)CC[C@]3(C)C2=O)[C@]1(C)CCO [Compound 6, (24S)-3β,11-dihydroxy-24-methyl-9,11-secocholest-5-en-9-one]		4.09 ± 0.5		> 10				60.51 ± 4.06	25.38 ± 6.68
CC(C)[C@@H](C)[C@@]1(C)C[C@@H]1[C@@H](C)[C@H]1CC[C@@H]([C@@H]2CC=C3C[C@@H](O)CC[C@]3(C)C2=O)[C@]1(C)CCO [Compound 7, 3β,11-dihydroxy-9,11-secogorgost-5-en-9-one]		> 10		> 10				10.29 ± 5.42	18.87 ± 3.86

Further lines, with some results ahead:

IC50 ([1]; Homo sapiens, Neutrophil) [µM]	IC50 [1] [µM]	IC50 ([2]; Homo sapiens, Neutrophil) [µM]	IC50 [2] [µM]	binding to FPR1 receptor (inhibition of fNLFNYK binding) (FPR1 receptor)	Molecule	inhibition at 10 µM ([1]; Neutrophil) [%]	inhibition at 10 µM ([2]; Neutrophil) [%]	Superoxide Anion Inhibition (%) [1] [%]	Elastase Release Inhibition (%) [2] [%]
	8.07 ± 0.53		4.73 ± 0.57		leptosterol A [Compound 5]			57.93 ± 2.30	86.32 ± 2.91
	7.07 ± 0.52		7.57 ± 0.4	low affinity	sinleptosterol A [Compound 1]			64.76 ± 3.42	65.04 ± 2.76
	4.68 ± 0.57		4.29 ± 0.25		sinleptosterol B [Compound 2]			76.30 ± 5.09	105.09 ± 5.25
